This note sets out measurements from patent US20250186391A1, “ORAL COMPLEMENT FACTOR D INHIBITORS” (BioCryst Pharmaceuticals, Inc., priority 2019, published 2025).

Bounds are passed on as bounds.

Sequence of Factor D (P00746 26-253): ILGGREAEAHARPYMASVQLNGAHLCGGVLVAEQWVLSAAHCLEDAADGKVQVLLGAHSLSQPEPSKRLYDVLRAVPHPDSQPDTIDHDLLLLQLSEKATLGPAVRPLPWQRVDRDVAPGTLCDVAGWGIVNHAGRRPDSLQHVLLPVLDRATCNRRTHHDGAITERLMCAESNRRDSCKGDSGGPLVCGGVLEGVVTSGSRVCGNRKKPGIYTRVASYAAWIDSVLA

This assay addresses Factor D (Homo sapiens (Human), UniProt P00746). Put plainly: Factor D esterolytic assay. The format is biochemical. Particulars: Z-Lys-SBzl substrate, 100 mM HEPES, 500 mM NaCl, pH 7.5, 10% DMSO; tested a minimum of three times; read-out: Measured Ki (IC50) Value for Compounds: IC50. Summed up:
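Chromogenic thioesterase read-out: Z-Lys-SBzl (1.29 mM) hydrolysis by human Factor D, thiol detected with DTNB at 405 nm (690 nm background subtracted) for 600 s. Run in 100 mM HEPES, 500 mM NaCl, pH 7.5, 10% DMSO, substrate added immediately or after room-temperature preincubation. IC50 from percent inhibition versus enzyme alone, n≥3.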
Turning to `NCc1cccc(-c2cc(NCc3cccnc3)c3occ(COc4ccccc4CC(=O)O)c3c2)c1` [Compound 187d, 2-(2-((5-(3-(aminomethyl)phenyl)-7-((pyridin-3-ylmethyl)amino)benzofuran-3-yl)methoxy)phenyl)acetic acid], the IC50 is below 1000 nM. In the case of `NCc1cccc(-c2cc(C#CC3CC3)c3occ(COc4ccccc4CC(=O)O)c3c2)c1` [Compound 294d, 2-(2-((5-(3-(aminomethyl)phenyl)-7-(cyclopropylethynyl)benzofuran-3-yl)methoxy)phenyl)acetic acid] it was below 1000 nM.

With `C[C@@H]1CN(Cc2cc(-c3cccc(CN)c3)cc3c(COc4ccccc4CC(=O)O)coc23)C[C@H](C)O1` [Compound 208d, 2-(2-((5-(3-(aminomethyl)phenyl)-7-(((2R,6S)-2,6-dimethylmorpholino)methyl)benzofuran-3-yl)methoxy)phenyl)acetic acid], the IC50 was below 1000 nM.

As for `NCc1cccc(-c2ccc3c(c2)c(COc2ccccc2CC(=O)O)nn3-c2ccccc2)c1` [Compound 144h, 2-(2-((5-(3-(aminomethyl)phenyl)-1-phenyl-1H-indazol-3-yl)methoxy)phenyl)acetic acid], the IC50 was below 1000 nM. In the case of `COc1ccc(CC(=O)O)c(OCc2c(C3CC3)oc3ccc(-c4cccc(CN)c4)cc23)c1` [Compound 247c, 2-(2-((5-(3-(aminomethyl)phenyl)-2-cyclopropylbenzofuran-3-yl)methoxy)-4-methoxyphenyl)acetic acid] it was below 1000 nM; in that of `COc1ccc(CC(=O)O)c(OCc2c(C(C)(C)C)oc3ccc(-c4cccc(CN)c4)cc23)c1` [Compound 174c, 2-(2-((5-(3-(aminomethyl)phenyl)-2-(tert-butyl)benzofuran-3-yl)methoxy)-4-methoxyphenyl)acetic acid], below 1000 nM; in that of `NCc1cccc(-c2ccc3occ(COc4cc(C5CC5)ccc4CC(=O)O)c3c2)c1` [Compound 111d, 2-(2-((5-(3-(aminomethyl)phenyl)benzofuran-3-yl)methoxy)-4-cyclopropylphenyl)acetic acid], below 1000 nM.

Consider `COc1ccc(CC(=O)O)c(OCc2c(C)oc3ccc(-c4cc(F)cc(CN)c4)cc23)c1` [Compound 239c, 2-(2-((5-(3-(aminomethyl)-5-fluorophenyl)-2-methylbenzofuran-3-yl)methoxy)-4-methoxyphenyl)acetic acid], for which the half-inhibitory concentration (IC50) is below 1000 nM. For the compound `Cn1nc2ccc(-c3cccc(CN)c3)cc2c1COc1ccccc1CC(=O)O` [Compound 184e, 2-(2-((5-(3-(aminomethyl)phenyl)-2-methyl-2H-indazol-3-yl)methoxy)phenyl)acetic acid], the IC50 was below 1000 nM. As for `Cc1ncc(-c2cc(-c3cccc(CN)c3)cc3c(COc4ccccc4CC(=O)O)coc23)cn1` [Compound 165c, 2-(2-((5-(3-(aminomethyl)phenyl)-7-(2-methylpyrimidin-5-yl)benzofuran-3-yl)methoxy)phenyl)acetic acid], the figure is below 1000 nM.

Take `COc1ccc(CC(=O)O)c(OCc2coc3ccc(-c4cccc(CN)c4)cc23)c1` [Compound 48b, 2-(2-((5-(3-(aminomethyl)phenyl)benzofuran-3-yl)methoxy)-4-methoxyphenyl)acetic acid]: the IC50 is below 1000 nM.

For `CC(C)n1nc(COc2ccccc2CC(=O)O)c2cc(-c3cccc(N)c3)ccc21` [Compound 321c, 2-(2-((5-(3-aminophenyl)-1-isopropyl-1H-indazol-3-yl)methoxy)phenyl)acetic acid], the IC50 lay within 1000 to 10000 nM. Turning to `COc1cccc(CC(=O)O)c1OCc1coc2ccc(-c3cccc(CN)c3)cc12` [Compound 104e, 2-(2-((5-(3-(aminomethyl)phenyl)benzofuran-3-yl)methoxy)-3-methoxyphenyl)acetic acid], the IC50 was below 1000 nM. In the case of `NCc1cc(F)cc(-c2ccc3occ(Cc4cccc(CC(=O)O)c4O)c3c2)c1` [Compound 40d, 2-(3-((5-(3-(aminomethyl)-5-fluorophenyl)benzofuran-3-yl)methyl)-2-hydroxyphenyl)acetic acid] it was 1000 to 10000 nM.

`NCc1cccc(-c2ccc3onc(COc4ccccc4CC(=O)O)c3c2)c1` [Compound 88e, 2-(2-((5-(3-(aminomethyl)phenyl)benzo[d]isoxazol-3-yl)methoxy)phenyl)acetic acid]: the IC50 was below 1000 nM.

On to `Cc1oc2c(cc(-c3cccc(CN)c3)c3occc32)c1COc1ccccc1CC(=O)O` [Compound 233h, 2-(2-((5-(3-(aminomethyl)phenyl)-2-methylbenzo[1,2-b:3,4-b′]difuran-3-yl)methoxy)phenyl)acetic acid], for which the IC50 is below 1000 nM.

Turning to `NCc1cccc(-c2cc(NC3CCCC3)c3occ(COc4ccccc4CC(=O)O)c3c2)c1` [Compound 188d, 2-(2-((5-(3-(aminomethyl)phenyl)-7-(cyclopentylamino)benzofuran-3-yl)methoxy)phenyl)acetic acid], the IC50 was below 1000 nM.

On to `CN1CCN(Cc2cc(-c3cccc(CN)c3)cc3c(COc4ccccc4CC(=O)O)coc23)CC1` [Compound 157e, 2-(2-((5-(3-(aminomethyl)phenyl)-7-((4-methylpiperazin-1-yl)methyl)benzofuran-3-yl)methoxy)phenyl)acetic acid], for which the 50% inhibitory concentration (IC50) is below 1000 nM. With `COc1c(-c2ccc3c(c2)c(COc2ccccc2CC(=O)O)nn3C(C)C)ccnc1CN` [Compound 326d, 2-(2-((5-(2-(aminomethyl)-3-methoxypyridin-4-yl)-1-isopropyl-1H-indazol-3-yl)methoxy)phenyl)acetic acid], the IC50 fell in the range of 1000 to 10000 nM. In the case of `COc1ccc(CC(=O)O)c(OCc2c(C)oc3ccc(-c4cccc(CN)n4)cc23)c1` [Compound 245d, 2-(2-((5-(6-(aminomethyl)pyridin-2-yl)-2-methylbenzofuran-3-yl)methoxy)-4-methoxyphenyl)acetic acid] it was below 1000 nM; in that of `NCc1cccc(-c2ccc3[nH]cc(C(=O)Nc4ccccc4CC(=O)O)c3n2)c1` [Compound 14c, 2-(2-(5-(3-(aminomethyl)phenyl)-1H-pyrrolo[3,2-b]pyridine-3-carboxamido)phenyl)acetic acid], below 1000 nM; in that of `COc1c(CN)cccc1-c1ccc2c(c1)c(COc1ccccc1CC(=O)O)nn2C(C)C` [Compound 325b, 2-(2-((5-(3-(aminomethyl)-2-methoxyphenyl)-1-isopropyl-1H-indazol-3-yl)methoxy)phenyl)acetic acid], 1000 to 10000 nM. Take `CC(C)n1nc(C(Oc2ccccc2CC(=O)O)c2ccccc2)c2cc(-c3cccc(CN)c3)ccc21` (stereo not shown) [Compound 228e, 2-(2-((5-(3-(aminomethyl)phenyl)-1-isopropyl-1H-indazol-3-yl)(phenyl)methoxy)phenyl)acetic acid]: the IC50 is above 10000 nM.

With `NCc1cccc(-c2cccc3oc(COc4ccccc4CC(=O)O)cc23)c1` [Compound 26a, 2-(2-((4-(3-(aminomethyl)phenyl)benzofuran-2-yl)methoxy)phenyl)acetic acid], the IC50 is below 1000 nM. For `Cn1ccc(COc2cc(-c3cccc(CN)c3)cc3c(COc4ccccc4CC(=O)O)coc23)n1` [Compound 198f, 2-(2-((5-(3-(aminomethyl)phenyl)-7-((1-methyl-1H-pyrazol-3-yl)methoxy)benzofuran-3-yl)methoxy)phenyl)acetic acid], the IC50 is below 1000 nM. As for `NCc1cccc(-c2ccc3oc(C4CC4)c(COc4ccccc4CC(=O)O)c3c2)c1` [Compound 133f, 2-(2-((5-(3-(aminomethyl)phenyl)-2-cyclopropylbenzofuran-3-yl)methoxy)phenyl)acetic acid], the IC50 is below 1000 nM. In the case of `NCc1cccc(-c2cc(COc3ccccc3CC(=O)O)cc3cc(CCOc4ccccc4CC(=O)O)oc23)c1` [Compound 20j, 2-(2-((7-(3-(aminomethyl)phenyl)-2-(2-(2-(carboxymethyl)phenoxy)ethyl)benzofuran-5-yl)methoxy)phenyl)acetic acid] it was below 1000 nM; in that of `NCc1cccc(-c2ccc3occ(COc4cc(F)ccc4CC(=O)O)c3c2)c1` [Compound 39f, 2-(2-((5-(3-(aminomethyl)phenyl)benzofuran-3-yl)methoxy)-4-fluorophenyl)acetic acid], below 1000 nM; in that of `Cc1cccc(OCc2coc3ccc(-c4cccc(CN)c4)cc23)c1CC(=O)O` [Compound 108d, 2-(2-((5-(3-(aminomethyl)phenyl)benzofuran-3-yl)methoxy)-6-methylphenyl)acetic acid], below 1000 nM. Turning to `COc1ccc(CC(=O)O)c(OCc2c(C(=O)O)oc3ccc(-c4cccc(CN)c4)cc23)c1` [Compound 61d, 5-(3-(aminomethyl)phenyl)-3-((2-(carboxymethyl)-5-methoxyphenoxy)methyl)benzofuran-2-carboxylic acid], the IC50 was below 1000 nM.

Turning to `NCc1cccc(-c2ccc3cccc(COc4ccccc4CC(=O)O)c3c2)c1` [Compound 100d, 2-(2-((7-(3-(aminomethyl)phenyl)naphthalen-1-yl)methoxy)phenyl)acetic acid], the IC50 was below 1000 nM. Take `CCc1oc2ccc(-c3cccc(CN)c3)cc2c1COc1cc(C)ccc1CC(=O)O` [Compound 319c, 2-(2-((5-(3-(aminomethyl)phenyl)-2-ethylbenzofuran-3-yl)methoxy)-4-methylphenyl)acetic acid]: the IC50 is below 1000 nM.

Consider `NCc1cccc(-c2cc(CNCC(F)(F)F)c3occ(COc4ccccc4CC(=O)O)c3c2)c1` [Compound 179b, 2-(2-((5-(3-(aminomethyl)phenyl)-7-(((2,2,2-trifluoroethyl)amino)methyl)benzofuran-3-yl)methoxy)phenyl)acetic acid], for which the IC50 was below 1000 nM. In the case of `NCc1cccc(-c2ccc3occ(COc4ccccc4CC(=O)O)c3c2)c1` [Compound 9e, 2-(2-((5-(3-(aminomethyl)phenyl)benzofuran-3-yl)methoxy)phenyl)acetic acid] it was below 1000 nM.
